Holding throughout (assay type): cell-based
Test [1] addresses T1, LPA receptor LPAR5 (Homo sapiens, UniProt Q9H1C0). Description: FLIPR assay, intracellular Ca2+ release in human mast cell line HMC-1. Set-up: two cell lines were used with high LPAR5 expression; endogenous in cells; host or cells: HMC-1 human mast cell line. To be noted: human mast cell line HMC-1, LPA-stimulated Ca2+ release, test compounds added 10 minutes prior LPA. From the text: (§1) B) Use of the Fluorometric Imaging Plate Reader (FLIPR) Assay for the Determination of Intracellular Ca^2+ Release in Human Mast Cell Line HMC-1 and the Murine Microglia Cell Line BV-2
(§2) The ability of the compounds of the formula I to inhibit or bind the LPA receptor LPAR5 can be assessed by determining the intracellular Ca^2+ release in human or animal cells. For the analysis of activating potential of LPA and the inhibitory effects of compounds of the formula I two cell lines were used with high LPAR5 expression, the human mast cell line HMC-1 and the murine microglia cell line BV-2 (Figures 1 and 2). For the FLIPR assay using human mast cells in a 96-well-format, HMC-1 suspension cells from flask culture were harvested, resuspended and counted. 14×10^6 HMC-1 cells were transferred into a new 50 ml tube, centrifuged for 3 minutes at 540×g. The resulting cell pellet at the bottom of the tube was resuspended with 15 ml loading buffer (loading buffer contained HBSS buffer (pH 7.4), 0.1% BSA (bovine serum albumin), 2 μM FLUO-4 dye; HBSS buffer (pH 7.4) contained 1×HBSS, 20 mM HEPES, 0.01% Pluronic F-127, 2.5 mM Probenicid).
Cells in loading buffer were incubated for 45-60 minutes at 37° C. After incubation cells were centrifuged for 3 minutes at 540×g and resuspended with 21 ml of HBSS buffer (pH 7.4). Each well of a poly-D-lysine coated 96-well-plate was filled with 150 μl cell solution, an equivalent of 100 000 cells/well. The 96-well-plate was centrifuged for 2 minutes at 100×g (without brake) prior a recovery time of 30 minutes at 37° C. After this procedure cells were stimulated with LPA (in HBSS pH 7.4 and 0.1% BSA) to determine the EC50 of LPA in HMC-1 cells. For the determination of the inhibitory effect of compounds of the formula I, test compounds were added to the cells in the 96-well-plate 10 minutes prior the addition of LPA. Results of the assay are expressed as % activation, and are calculated using maximum peak of activation (Amax). The IC50 data of the above described FLIPR assay using human mast cell line HMC-1 for exemplary compounds of the present invention are shown in Table 2. Adherent BV-2 cells were seeded onto poly-D-lysine coated 96-well-plates (100000 cells/well) the day before performing the FLIPR assay. The density of the cells in the 96-well-plate at the day of the FLIPR assay should be 90%. After aspiration of the culture media, BV-2 cells were incubated for 30 minutes at 37° C. with loading buffer and recovered in 150 μl HBSS buffer for 30 minutes at 37° C. After this procedure cells were stimulated with LPA (in HBSS pH 7.4 and 0.1% BSA) to determine the EC50 of LPA in BV-2 cells. For the determination of the inhibitory effect of compounds of the formula I, test compounds were added to the cells in the 96-well-plate 10 minutes prior the addition of LPA. The IC50 data of the above described FLIPR assay using the murine microglia cell line BV-2 for exemplary compounds of the present invention are shown in Table 3.

For test [2], the target named is T2, LPA receptor LPAR5 (Mus musculus, UniProt Q149R9).
T2 construct: two cell lines were used with high LPAR5 expression; endogenous in cells; host or cells: BV-2 murine microglia cell line
T2 sequence (Q149R9 whole entry): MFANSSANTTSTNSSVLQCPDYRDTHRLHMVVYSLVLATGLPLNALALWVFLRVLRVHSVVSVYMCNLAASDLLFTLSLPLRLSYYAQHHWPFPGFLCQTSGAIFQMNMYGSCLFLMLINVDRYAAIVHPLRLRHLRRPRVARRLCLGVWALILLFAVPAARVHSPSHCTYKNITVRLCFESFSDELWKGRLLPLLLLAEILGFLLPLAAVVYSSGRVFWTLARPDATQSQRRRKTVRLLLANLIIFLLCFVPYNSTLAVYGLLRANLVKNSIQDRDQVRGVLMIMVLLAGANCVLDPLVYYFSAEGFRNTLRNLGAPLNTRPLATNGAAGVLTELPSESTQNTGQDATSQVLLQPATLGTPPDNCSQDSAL
Put plainly: FLIPR assay, intracellular Ca2+ release in murine microglia cell line BV-2. To be noted: murine microglia cell line BV-2, LPA-stimulated Ca2+ release, test compounds added 10 minutes prior LPA.
Text: as §1, §2
Cells in loading buffer were incubated for 45-60 minutes at 37° C. After incubation cells were centrifuged for 3 minutes at 540×g and resuspended with 21 ml of HBSS buffer (pH 7.4). Each well of a poly-D-lysine coated 96-well-plate was filled with 150 μl cell solution, an equivalent of 100 000 cells/well. The 96-well-plate was centrifuged for 2 minutes at 100×g (without brake) prior a recovery time of 30 minutes at 37° C. After this procedure cells were stimulated with LPA (in HBSS pH 7.4 and 0.1% BSA) to determine the EC50 of LPA in HMC-1 cells. For the determination of the inhibitory effect of compounds of the formula I, test compounds were added to the cells in the 96-well-plate 10 minutes prior the addition of LPA. Results of the assay are expressed as % activation, and are calculated using maximum peak of activation (Amax). […]

In test [3] the target is T1, LPA receptor LPAR5. Description: Aggregation assay for washed human blood platelets (LPA-induced). The note with it: reduction of the maximal aggregation, 5 minutes incubation at 37° C. As for the experimental part: A) Aggregation Assay for Washed Human Blood Platelets (Thrombocytes)
Whole blood was collected from healthy volunteers using 3×20 ml syringes containing each 1/10 volume of buffered citrate. The anticoagulated whole blood was transferred into 50 ml polypropylene conical tubes (30 ml per tube). The tubes were centrifuged for 10 minutes at 150×g at room temperature without using the centrifuge brake. This procedure results in a lower phase of cellular components and a supernatant (upper phase) of platelet rich plasma (PRP). The PRP phase was collected from each tube and pooled for each donor. To avoid carry over of cellular components following first centrifugation, approximately 5 ml of PRP was left in the tube. The platelet concentration was determined using a ABX Micros 60 counter. The PRP phase was transferred to a new 50 ml tube. After 10 minutes standing at room temperature, 1 μl PGI2 (1 mM in Tris-HCl/pH 8.8) and 180 μl ACD/A were added per ml PRP. The PRP was then transferred to new 10 ml tube and centrifuged for 10 minutes at 500×g. After centrifugation a cellular pellet is visible at the bottom of the tube. The supernatant was carefully discarded and the cellular pellet, consisting of human blood platelets was then dissolved in 10 ml buffer T (buffer T composition: 145 mM NaCl, 5 mM KCl, 0.1 mM MgCl2×6 H2O, 15 mM HEPES, 5.5 mM glucose, pH 7.4). Platelet concentration in this solution was determined and buffer T was added to obtain a final concentration of 3.5×10^5 platelets per ml.
After 10 minutes at room temperature, 1 μl PGI2 per ml platelet solution was added and distributed into new 10 ml tubes. After a centrifugation step, 10 minutes at 500×g, supernatant was discarded and the platelets were resuspended in buffer T to a final concentration of 3.5×10^5 platelets per ml buffer T. Before use, platelet-containing buffer equilibrated for 30 minutes at room temperature. The human platelet aggregation assay was performed in single use cuvettes using the Platelet Aggregation Profiler® (PAP-4 or -8E, BIO/DATA Corporation). For a single experiment, 320 μl of platelet solution were transferred into an assay cuvette, 20 μl of calcium citrate solution (10 mM in H2O) and 20 μl of fibrinogen solution (20 mg/ml H2O) were added. The aggregation assay was performed in the assay cuvette at 37° C. and with 1.200 rpm stirring. To determine the EC50, eight assay cuvettes were loaded as described above with different concentrations of LPA. Aggregation was measured over 6 minutes at 37° C. with 1200 rpm (revolutions per minute) stirring. Results of the assay are expressed as % activation, and are calculated using maximum aggregation (Tmax) or area under curve (AUC) of the absorbance over 6 minutes. The inhibitory effect (IC50) of the test compounds was determined as the reduction of the maximal aggregation. Test compound was added prior starting the experiment with an incubation time of the test compound of 5 minutes at 37° C. with 1200 rpm stirring. The IC50 data of the above described platelet aggregation assay using human washed platelets for exemplary compounds of the present invention are shown in Table 1.

pIC50: −log10 of the molar value.

As usually defined, the pIC50 is −log10 of the IC50, conventionally taken in molar units. The low end stands for a large IC50, the high end for a small IC50.

T1 sequence (Q9H1C0 whole entry): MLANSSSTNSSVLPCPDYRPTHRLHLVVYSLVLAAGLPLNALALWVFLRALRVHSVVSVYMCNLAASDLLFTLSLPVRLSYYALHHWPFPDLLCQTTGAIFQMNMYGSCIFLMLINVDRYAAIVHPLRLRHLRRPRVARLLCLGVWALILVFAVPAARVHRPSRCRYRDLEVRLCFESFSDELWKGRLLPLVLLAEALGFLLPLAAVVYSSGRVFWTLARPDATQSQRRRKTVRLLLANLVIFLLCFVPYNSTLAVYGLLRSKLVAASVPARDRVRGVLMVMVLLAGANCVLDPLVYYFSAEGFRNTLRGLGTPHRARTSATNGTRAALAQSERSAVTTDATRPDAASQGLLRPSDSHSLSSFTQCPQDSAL

The molecule `O=C(O)C1Oc2cc(-n3cccc3)ccc2C(C2CCCCC2)(C2CCCCC2)O1` (centres unmarked) [Example 2, 4,4-Dicyclohexyl-7-pyrrol-1-yl-4H-benzo[1,3]dioxine-2-carboxylic acid] had a pIC50 against LPA receptor LPAR5 [1] of 5.47.

Take `COc1cc(OC)c2c(c1)OC(C(=O)O)OC2(C1CCCCC1)C1CCCCC1` (centres unmarked) [Example 7, 4,4-Dicyclohexyl-5,7-dimethoxy-4H-benzo[1,3]dioxine-2-carboxylic acid]: the pIC50 against LPA receptor LPAR5 [1] is 5.36.

Take `Cc1cccc2c1OC(C(=O)O)OC2(C1CCCCC1)C1CCCCC1` (centres unmarked) [Example 12, 4,4-Dicyclohexyl-8-methyl-4H-benzo[1,3]dioxine-2-carboxylic acid]: the pIC50 against LPA receptor LPAR5 [2] was 5.10.

On to `O=C(O)C1Oc2ccc(OC(F)(F)F)cc2C(C2CCCCC2)(C2CCCCC2)O1` (centres unmarked) [Example 18, 4,4-Dicyclohexyl-6-trifluoromethoxy-4H-benzo[1,3]dioxine-2-carboxylic acid], for which the pIC50 against LPA receptor LPAR5 [2] and against LPA receptor LPAR5 [1] was 5.82 throughout.

At LPA receptor LPAR5 [1], `O=C(O)C1Oc2ccc(Oc3ccc(Cl)cc3)cc2C(C2CCCCC2)(C2CCCCC2)O1` (centres unmarked) [Example 22, 6-(4-Chloro-phenoxy)-4,4-dicyclohexyl-4H-benzo[1,3]dioxine-2-carboxylic acid] had a negative-log IC50 (pIC50) of 5.59.

Molecule `O=C(c1ccc(Cl)cc1)c1ccc2c(c1)C(C1CCCCC1)(C1CCCCC1)OC(C(=O)O)O2` (centres unmarked) [Example 26, 6-(4-Chloro-benzoyl)-4,4-dicyclohexyl-4H-benzo[1,3]dioxine-2-carboxylic acid] had a pIC50 at LPA receptor LPAR5 [1] of 5.47.

Molecule `CCOc1cccc2c1C(C1CCCCC1)(C1CCCCC1)OC(C(=O)O)O2` (centres unmarked) [Example 30, 4,4-Dicyclohexyl-5-ethoxy-4H-benzo[1,3]dioxine-2-carboxylic acid] showed a pIC50 against LPA receptor LPAR5 [3] of 5.23.

The molecule `CCCCOc1ccc2c(c1)OC(C(=O)O)OC2(C1CCCCC1)C1CCCCC1` (centres unmarked) [Example 31, 7-Butoxy-4,4-dicyclohexyl-4H-benzo[1,3]dioxine-2-carboxylic acid] showed a pIC50 on LPA receptor LPAR5 [1] of 5.28.

At LPA receptor LPAR5 [1], `O=C(O)C1Oc2c(Cl)cc(Cl)cc2C(C2CCCCC2)(C2CCCCC2)O1` (centres unmarked) [Example 32, 6,8-Dichloro-4,4-dicyclohexyl-4H-benzo[1,3]dioxine-2-carboxylic acid] showed a negative-log IC50 (pIC50) of 5.46.

Turning to `O=C(O)C1Oc2ccc3ccccc3c2C(C2CCCCC2)(C2CCCCC2)O1` (centres unmarked) [Example 33, 1,1-Dicyclohexyl-1H-naphtho[2,1-d][1,3]dioxine-3-carboxylic acid], the negative-log IC50 (pIC50) against LPA receptor LPAR5 [1] is 5.48.

For the molecule `O=C(O)C1Oc2ccc(-c3ccccc3)cc2C(C2CCCCC2)(C2CCCCC2)O1` (centres unmarked) [Example 35, 4,4-Dicyclohexyl-6-phenyl-4H-benzo[1,3]dioxine-2-carboxylic acid], the negative-log IC50 (pIC50) against LPA receptor LPAR5 [1] is 5.42.

At LPA receptor LPAR5 [3], `COc1cc(C)c2c(c1)OC(C(=O)O)OC2(C1CCCCC1)C1CCCCC1` (centres unmarked) [Example 36, 4,4-Dicyclohexyl-7-methoxy-5-methyl-4H-benzo[1,3]dioxine-2-carboxylic acid] gave a pIC50 of 5.62.

On to `O=C(O)C1Oc2cc(OCc3ccccc3)ccc2C(C2CCCCC2)(C2CCCCC2)O1` (centres unmarked) [Example 37, 7-Benzyloxy-4,4-dicyclohexyl-4H-benzo[1,3]dioxine-2-carboxylic acid], for which the figures for the pIC50 at LPA receptor LPAR5 [3] and at LPA receptor LPAR5 [1] were 4.95 and 5.44, respectively.

`Cc1cc2c(cc1Cl)C(C1CCCCC1)(C1CCCCC1)OC(C(=O)O)O2` (centres unmarked) [Example 43, 6-Chloro-4,4-dicyclohexyl-7-methyl-4H-benzo[1,3]dioxine-2-carboxylic acid]: the pIC50 at LPA receptor LPAR5 [1] was 5.48.

Molecule `O=C(O)C1Oc2ccc3c(c2C(C2CCCCC2)(C2CCCCC2)O1)CCCC3` (centres unmarked) [Example 45, 1,1-Dicyclohexyl-7,8,9,10-tetrahydro-1H-naphtho[2,1-d][1,3]dioxine-3-carboxylic acid] showed a negative logarithm of the IC50 (pIC50) on LPA receptor LPAR5 [1] of 5.51.

On to `O=C(O)C1Oc2c(OC(F)(F)F)cccc2C(C2CCCCC2)(C2CCCCC2)O1` (centres unmarked) [Example 46, 4,4-Dicyclohexyl-8-trifluoromethoxy-4H-benzo[1,3]dioxine-2-carboxylic acid], for which the pIC50 against LPA receptor LPAR5 [3] is 5.27; against LPA receptor LPAR5 [1] it was 5.49.

Regarding `CCN(CC)c1ccc2c(c1)OC(C(=O)O)OC2(C1CCCCC1)C1CCCCC1` (centres unmarked) [Example 49, 4,4-Dicyclohexyl-7-diethylamino-4H-benzo[1,3]dioxine-2-carboxylic acid], the negative logarithm of the IC50 (pIC50) on LPA receptor LPAR5 [3] is 5.57; on LPA receptor LPAR5 [1], 5.44.

On to `O=C(O)C1Oc2ccc(Br)cc2C(C2CCCCC2)(C2CCCCC2)O1` (centres unmarked) [Example 50, 6-Bromo-4,4-dicyclohexyl-4H-benzo[1,3]dioxine-2-carboxylic acid], for which the pIC50 against LPA receptor LPAR5 [1] is 5.60.

On to `O=C(O)C1Oc2ccc(Cl)cc2C(C2CCCCCC2)(C2CCCCCC2)O1` (centres unmarked) [Example 55, 6-Chloro-4,4-dicycloheptyl-4H-benzo[1,3]dioxine-2-carboxylic acid], for which the pIC50 against LPA receptor LPAR5 [1] was 5.62.

On to `Clc1ccc2c(c1)C(C1CCCCC1)(C1CCCCC1)OC(c1nnn[nH]1)O2` (centres unmarked) [Example 60, 5-(6-Chloro-4,4-dicyclohexyl-4H-benzo[1,3]dioxin-2-yl)-1H-tetrazole], for which the pIC50 against LPA receptor LPAR5 [1] is 5.44.

`O=c1[nH]c(C2Oc3ccc(Cl)cc3C(C3CCCCC3)(C3CCCCC3)O2)no1` (centres unmarked) [Example 61, 3-(6-Chloro-4,4-dicyclohexyl-4H-benzo[1,3]dioxin-2-yl)-4H-[1,2,4]oxadiazol-5-one] gave a negative logarithm of the IC50 (pIC50) on LPA receptor LPAR5 [1] of 5.49.

In the case of `O=c1[nH]nc(C2Oc3ccc(Cl)cc3C(C3CCCCC3)(C3CCCCC3)O2)o1` (centres unmarked) [Example 63, 5-(6-Chloro-4,4-dicyclohexyl-4H-benzo[1,3]dioxin-2-yl)-3H-[1,3,4]oxadiazol-2-one], at LPA receptor LPAR5 [1], the negative logarithm of the IC50 (pIC50) was 5.11.

The values are drawn from patent US9221784B2, “Benzo[1,3]dioxine derivatives and their use as LPAR5 antagonists” (SANOFI, priority 2012, dated 2015).
